Assay results reported in US4731109A, “Herbicidal 2-haloacetanilides” (Monsanto Company, priority 1982, dated 1988).
Like-named read-outs stand apart in the source and are kept apart here.

Tests used:
Assay type in all cases: in vivo
soybeans = experiment: Field pre-emergence selectivity test; details: Glycine max, 1008 h, 6 weeks, read-out: Percent Inhibition; for inhibition at 560 g/ha: 0.56 Kg/Ha; for inhibition at 1120 g/ha: 1.12 Kg/Ha; for inhibition at 2240 g/ha: 2.24 Kg/Ha; for inhibition at 4480 g/ha: 4.48 Kg/Ha
Description: (§1) The compound of Examples 1 and 2 was also tested in the field to determine its pre-emergence selectivity against foxtail (spp), barnyardgrass, wild proso millet, smartweed, lambsquarters and pigweed in a plurality of crops; the data (representing three replicate runs) are shown in Table VII for both surface application (S.A.) and soil incorporation (PPI, i.e., preplant incorporation) of the herbicide. The seeds were planted in a fine seedbed of silt loam of intermediate moisture. The seeds were planted at a depth of two inches (5.08 cm). First rainfall (0.2"; 0.51 cm) occurred the day following treatment, the second rain (0.25"; […]) two days after treatment; cumulative rainfall 22 days after treatment was 1.8" (4.57 cm). Observations were made 6 weeks after treatment.

wild proso millet = experiment: Field pre-emergence selectivity test; details: 1008 h, 6 weeks, read-out: Percent Inhibition; for inhibition at 560 g/ha: 0.56 Kg/Ha; for inhibition at 1120 g/ha: 1.12 Kg/Ha; for inhibition at 2240 g/ha: 2.24 Kg/Ha; for inhibition at 4480 g/ha: 4.48 Kg/Ha
Description: as §1

pigweed = experiment: Field pre-emergence selectivity test; details: Amaranthus retroflexus, 1008 h, 6 weeks, read-out: Percent Inhibition; for inhibition at 560 g/ha: 0.56 Kg/Ha; for inhibition at 1120 g/ha: 1.12 Kg/Ha
Description: as §1

cotton = experiment: Greenhouse pre-emergence GR15/GR85 selectivity test; details: Table XII
snap beans = experiment: as above; details: Table VI
From the text: A good grade of top soil is placed in aluminum pans and compacted to a depth of three-eighths to one-half inch from the top of the pan. On the top of the soil is placed a number of seeds or vegetative propagules of various plant species. The soil required to level fill the pans after seeding or adding vegetative propagules is weighed into a pan. The soil and a known amount of the active ingredient applied in a solvent or as a wettable powder suspension are thoroughly mixed, and used to cover the prepared pans. After treatment, the pans are given an initial overhead irrigation of eater, equivalent to one-fourth inch (0.64 cm) rainfall, then watered by subirrigation as need to give adequate moisture for germination and growth. As an alternative procedure, the overhead irrigation may be omitted. Observations are made about 2-3 weeks after seeding and treatment.
In the discussion and tables of data below, reference is made to herbicide application rates symbolized as "GR15 " and "GR85 "; these rates are given in kilograms per hectare (kg/ha) which are convertible into pounds per acre (lbs/A) by dividing the kg/ha rate by 1.12.
A further guide to the effectiveness of a chemical as a selective herbicide is the "selectivity factor" ("SF") for a herbicide in given crops and weeds. […]

Barnyardgrass = experiment: Resistance to leaching and resulting herbicidal efficacy; details: for inhibition at 140 g/ha / inhibition at 560 g/ha / inhibition at 2200 g/ha: Echinochloa crus-galli, read-out: Percent Inhibition
Description: Laboratory tests were conducted to determine the resistance of herbicides according to this invention to leaching into the soil and resulting herbicidal efficacy. […] The pots containing the treated soil were subjected to leaching by placing on a turntable which rotated under two nozzle tips of a water container calibrated to deliver one inch (2.5 cm) of water per hour simulating rainfall. Leaching rates were adjusted by varying the amount of time on the turntable. Water was delivered to the soil in the pots and allowed to percolate through the filter paper and drainage holes. The pots were then allowed to sit for three days at ambient room temperature. The treated soil in the pots was then removed, crumbled and placed as a surface layer on top of other pots containing the above soils seeded with barnyardgrass seeds. The pots were then placed on greenhouse benches, sub-irrigated and allowed to grow for 2-3 weeks. Visual ratings of percent growth inhibition compared to control (untreated) pots and fresh weights for barnyardgrass were recorded; the data from the control represents six replications and that for the test compounds three replications; test data are shown in Table XVIII.

[1] = Ray silt loam, 0.14 Kg/Ha, rain 0 cm
[2] = Ray silt loam, 0.14 Kg/Ha, rain 1.27 cm
[3] = Ray silt loam, 0.14 Kg/Ha, rain 5.08 cm
[4] = Ray silt loam, 0.56 Kg/Ha, rain 0 cm
[5] = Ray silt loam, 0.56 Kg/Ha, rain 1.27 cm
[6] = Ray silt loam, 0.56 Kg/Ha, rain 5.08 cm
[7] = Ray silt loam, 0.56 Kg/Ha, rain 10.16 cm
[8] = Ray silt loam, 2.2 Kg/Ha, rain 0 cm
[9] = Ray silt loam, 2.2 Kg/Ha, rain 1.27 cm
[10] = Ray silt loam, 2.2 Kg/Ha, rain 5.08 cm
[11] = Ray silt loam, 2.2 Kg/Ha, rain 10.16 cm
[12] = Ray silt loam, 0.14 Kg/Ha, rain 10.16 cm

CCOCN(C(=O)CCl)c1c(C)cccc1C(F)(F)F [Example 1, N-(ethoxymethyl)-2'-trifluoromethyl-6'-methyl-2-chloroacetanilide]
inhibition at 560 g/ha (soybeans; P.P.I.): 5%
inhibition at 1120 g/ha (soybeans; P.P.I.): 7%
inhibition at 2240 g/ha (soybeans; P.P.I.): 20%
inhibition at 4480 g/ha (soybeans; P.P.I.): 40%
inhibition at 560 g/ha (soybeans; S.A.): 0%
inhibition at 1120 g/ha (soybeans; S.A.): 5%
inhibition at 2240 g/ha (soybeans; S.A.): 0%
inhibition at 4480 g/ha (soybeans; S.A.): 13%
inhibition at 560 g/ha (wild proso millet; P.P.I.): 23%
inhibition at 1120 g/ha (wild proso millet; P.P.I.): 58%
inhibition at 2240 g/ha (wild proso millet; P.P.I.): 80%
inhibition at 4480 g/ha (wild proso millet; P.P.I.): 85%
inhibition at 560 g/ha (wild proso millet; S.A.): 63%
inhibition at 1120 g/ha (wild proso millet; S.A.): 83%
inhibition at 2240 g/ha (wild proso millet; S.A.): 95%
inhibition at 4480 g/ha (wild proso millet; S.A.): 97%
inhibition at 560 g/ha (pigweed; P.P.I.): 50%
inhibition at 1120 g/ha (pigweed; P.P.I.): 85%
inhibition at 2240 g/ha (pigweed; P.P.I., 2.24 Kg/Ha): 85%
inhibition at 4480 g/ha (pigweed; P.P.I., 4.48 Kg/Ha): 95%
inhibition at 560 g/ha (pigweed; S.A.): 0%
inhibition at 1120 g/ha (pigweed; S.A.): 0%
GR15 (cotton): 2.0 Kg/Ha
GR15 Rate (snap beans): 0.90 Kg/Ha
inhibition at 140 g/ha (Barnyardgrass; Drummer silt clay, 0.14 Kg/Ha, rain 0 cm): 100%
inhibition at 140 g/ha (Barnyardgrass; Drummer silt clay, 0.14 Kg/Ha, rain 1.27 cm): 97%
inhibition at 140 g/ha (Barnyardgrass; Drummer silt clay, 0.14 Kg/Ha, rain 5.08 cm): 95%
inhibition at 140 g/ha (Barnyardgrass; Drummer silt clay, 0.14 Kg/Ha, rain 10.16 cm): 20%
inhibition at 560 g/ha (Barnyardgrass; Drummer silt clay, 0.56 Kg/Ha, rain 0 cm): 100%
inhibition at 560 g/ha (Barnyardgrass; Drummer silt clay, 0.56 Kg/Ha, rain 1.27 cm): 100%
inhibition at 560 g/ha (Barnyardgrass; Drummer silt clay, 0.56 Kg/Ha, rain 5.08 cm): 100%
inhibition at 560 g/ha (Barnyardgrass; Drummer silt clay, 0.56 Kg/Ha, rain 10.16 cm): 100%
inhibition at 2200 g/ha (Barnyardgrass; Drummer silt clay, 2.2 Kg/Ha, rain 0 cm): 100%
inhibition at 2200 g/ha (Barnyardgrass; Drummer silt clay, 2.2 Kg/Ha, rain 1.27 cm): 100%
inhibition at 2200 g/ha (Barnyardgrass; Drummer silt clay, 2.2 Kg/Ha, rain 5.08 cm): 100%
inhibition at 2200 g/ha (Barnyardgrass; Drummer silt clay, 2.2 Kg/Ha, rain 10.16 cm): 100%
inhibition at 140 g/ha (Barnyardgrass; [1]): 95%
inhibition at 140 g/ha (Barnyardgrass; [2]): 96%
inhibition at 140 g/ha (Barnyardgrass; [3]): 58%
inhibition at 560 g/ha (Barnyardgrass; [4]): 100%
inhibition at 560 g/ha (Barnyardgrass; [5]): 100%
inhibition at 560 g/ha (Barnyardgrass; [6]): 70%
inhibition at 560 g/ha (Barnyardgrass; [7]): 33%
inhibition at 2200 g/ha (Barnyardgrass; [8]): 100%
inhibition at 2200 g/ha (Barnyardgrass; [9]): 100%
inhibition at 2200 g/ha (Barnyardgrass; [10]): 95%
inhibition at 2200 g/ha (Barnyardgrass; [11]): 35%
inhibition at 140 g/ha (Barnyardgrass; [12]): 20%
Fresh Weight (Barnyardgrass; [1]): 0.20 Grams
Fresh Weight (Barnyardgrass; [2]): 0.17 Grams
Fresh Weight (Barnyardgrass; [3]): 1.74 Grams
Fresh Weight (Barnyardgrass; [12]): 3.26 Grams
Fresh Weight (Barnyardgrass; [4]): 0 Grams
Fresh Weight (Barnyardgrass; [5]): 0 Grams
Fresh Weight (Barnyardgrass; [6]): 1.21 Grams
Fresh Weight (Barnyardgrass; [7]): 2.73 Grams
Fresh Weight (Barnyardgrass; [8]): 0 Grams
Fresh Weight (Barnyardgrass; [9]): 0 Grams
Fresh Weight (Barnyardgrass; [10]): 0.20 Grams
Fresh Weight (Barnyardgrass; [11]): 2.65 Grams
